Test results reported in ChEMBL document CHEMBL4411286, “Discovery of new potent hits against intracellular Trypanosoma cruzi by QSAR-based virtual screening” (Eur J Med Chem, 2019).

Legend:
[1] = test system: Trypanosoma cruzi; assay: Antimicrobial activity against Trypanosoma cruzi Y infected in human U2OS cells after 96 hrs by HCS assay; type: functional, organism-based
[2] = Selectivity index, ratio of CC50 for human U2OS cells to EC50 for Trypanosoma cruzi Y infected in human U2OS cells; type: toxicity, cell-based; details: read-out: Ratio CC50/EC50
[3] = Cytotoxicity against human U2OS cells assessed as reduction in cell viability after 96 hrs; type: cell-based

Compound | EC50 ([1]; read-out: EC50) | EC50 ([1]; read-out: pEC50 (converted)) | selectivity ratio [2] | CC50 at 96 h ([3]; read-out: CC50) | CC50 at 96 h ([3]; read-out: pCC50 (converted))
COc1cccc(-c2noc(-c3cccnc3)n2)c1 | 86 µM | 85.1 µM | 1.2 | 106 µM | –
C=CCSc1nc(-c2ccc(OC)cc2)n[nH]1 | 149 µM | – | 1.3 | 195 µM | –
Clc1ccc(-c2csc(-c3cccnc3)n2)cc1 | 4.2 µM | 4.17 µM | > 48 | > 200 µM | –
Cc1nnc(SCC(=O)N2c3ccccc3CC2C)n1-c1ccccc1 (centres undefined) | 36.9 µM | 37.2 µM | 4.2 | 155 µM | –
Cc1ccc(-n2c(SCC(=O)N3CCN(c4ccccc4)CC3)nnc2-c2ccncc2)cc1Cl | 7 µM | 6.92 µM | 3 | 21.1 µM | –
Cc1ccc(-c2csc(-c3cccnc3)n2)cc1C | 2.7 µM | 2.69 µM | 15.1 | 40.8 µM | –
O=C(NC(Cn1ccnc1)c1ccccc1)c1cccc(-n2cccn2)c1 (centres undefined) | 0.3 µM | 0.257 µM | 46.3 | 11.8 µM | 11.7 µM
COc1ccc(S(=O)(=O)N(Cc2ccncc2)Cc2ccc(OCC(C)C)cc2)cc1OC | 0.5 µM | 0.479 µM | 45.7 | 21.7 µM | 21.9 µM
CC1=C(C(=O)OCCc2ccccc2)C(c2ccncc2)C2=C(CC(c3ccccc3)CC2=O)N1 (centres undefined) | > 200 µM | > 200 µM | – | > 200 µM | –
COc1ccc(N2CCN(C(=O)COc3ccc(C4CCCCC4)cc3)CC2)c([N+](=O)[O-])c1 | 38.3 µM | – | 1.3 | 49.6 µM | –
Cc1ccc(N2C(=O)C(CC(=O)Nc3ccccc3)N(Cc3cccnc3)C2=O)cc1 (centres undefined) | 191 µM | – | > 1 | > 200 µM | –
CC(C)COc1ccc(CN(Cc2ccncc2)S(=O)(=O)c2ccc(F)c(F)c2)cc1 | 0.4 µM | 0.38 µM | 30.6 | 11.5 µM | 11.5 µM
Cc1nnc(-c2cccc(-c3ccnc4[nH]ccc34)c2)s1 | > 200 µM | – | < 0.6 | 127 µM | –
O=C(NC(Cn1ccnc1)c1ccccc1)c1csc(-c2cccs2)n1 (centres undefined) | > 200 µM | > 200 µM | – | > 200 µM | 200 µM
CC(Oc1ccc(-c2ccccc2)cc1)C(=O)Nc1ccc(S(=O)(=O)Nc2nccs2)cc1 (centres undefined) | > 200 µM | – | – | > 200 µM | –
Clc1ccc(Cc2nn3c(CN4CCN(c5ccccc5)CC4)nnc3s2)cc1 | > 200 µM | – | – | > 200 µM | –
O=C(CSc1nc(-c2ccncc2)n[nH]1)N1CCN(c2ccccc2)CC1 | 20.1 µM | 20 µM | > 9.9 | > 200 µM | –
Cc1nccn1-c1ccc(Cn2ccnc2-c2cc3ccccc3[nH]c2=O)cc1 | 1.2 µM | – | 43.9 | 52.9 µM | –
Nc1ncc(-c2nc(-c3cccnn3)no2)c(-c2ccccc2)n1 | > 200 µM | – | < 0.5 | 99.7 µM | –
Cn1c(SCC(=O)N2CCN(c3ccccc3)CC2)nnc1-c1ccc(Br)cc1 | > 200 µM | > 200 µM | – | > 200 µM | –

Compound | EC50 ([1]; read-out: EC50) | EC50 ([1]; read-out: pEC50 (converted)) | selectivity ratio [2] | CC50 at 96 h ([3]; read-out: CC50) | CC50 at 96 h ([3]; read-out: pCC50 (converted))
O=C(N/C(=C/c1cccnc1)c1nc2ccccc2[nH]1)c1cccc(Br)c1 | 18.9 µM | – | 2.5 | 47.4 µM | –
c1cncc(-c2nc(-c3cnccn3)n[nH]2)c1 | 3.4 µM | – | 0.4 | 1.5 µM | –
COc1ccc(N2CCN(C(=O)CN(Cc3ccccc3C)S(=O)(=O)c3ccc(Cl)cc3)CC2)cc1 | 2.7 µM | 2.69 µM | 27.7 | 73.9 µM | 74.1 µM
O=C(NC(Cn1ccnc1)c1ccccc1)c1ccc(-n2cnnn2)cc1 (centres undefined) | 0.3 µM | 0.257 µM | 137 | 33.6 µM | 35.5 µM
COc1ccc2c(c1)cc(C(=O)NC(Cn1ccnc1)c1ccccc1)n2C (centres undefined) | 13.3 µM | 13.2 µM | – | 0.62 µM | 0.617 µM
N#Cc1ccc(-c2ccc(OCC(=O)N3CCN(c4cccc(Cl)c4)CC3)cc2)cc1 | > 200 µM | – | – | > 200 µM | –
Cc1ncsc1CCC(=O)NC(Cn1ccnc1)c1ccccc1 (centres undefined) | > 200 µM | – | – | > 200 µM | –
CC(=O)Nc1ccc(Cl)c(C(=O)NC(Cn2ccnc2)c2ccccc2)c1 (centres undefined) | 2.7 µM | – | > 72.8 | > 200 µM | –
O=C(CC(Nc1ccc2ccccc2c1)c1ccncc1)c1ccc(Br)cc1 (centres undefined) | 0.8 µM | – | > 258 | > 200 µM | –
COc1ccc(C2CC(=O)C3=C(C2)NC(C)=C(C(=O)OCCc2ccccc2)C3c2ccncc2)cc1 (centres undefined) | 0.4 µM | 0.417 µM | 46.5 | 19.3 µM | –
Oc1ccccc1-c1n[nH]c(-c2ccccn2)n1 | > 200 µM | – | – | > 200 µM | –
Cc1ccccc1-c1noc(-c2cccnc2)n1 | 18.6 µM | 18.6 µM | > 10.8 | > 200 µM | –
O=C(COc1ccc(-c2ccccc2)cc1)N1CCN(S(=O)(=O)c2ccc(F)cc2)CC1 | > 200 µM | > 200 µM | – | > 200 µM | 200 µM
CC1Cc2ccccc2N1C(=O)CSc1nnnn1-c1ccccc1 (centres undefined) | 109 µM | 110 µM | > 1.8 | > 200 µM | –
CC(C)COc1ccc(CN(Cc2ccncc2)S(=O)(=O)c2cccc(F)c2)cc1 | > 200 µM | > 200 µM | – | > 200 µM | 200 µM
c1cncc(-c2nc(-c3cccs3)no2)c1 | > 200 µM | > 200 µM | < 0.3 | 66.3 µM | –
Cn1c(SCC(=O)N2CCN(c3ccccc3F)CC2)nnc1-c1cccnc1 | > 200 µM | > 200 µM | < 1 | 198 µM | –
CC(C)COc1ccc(CN(Cc2ccncc2)S(=O)(=O)c2ccc(F)cc2F)cc1 | 0.7 µM | 0.724 µM | > 274 | > 200 µM | 200 µM
O=C(Cn1ccnc1[N+](=O)[O-])NCc1ccccc1 [BENZNIDAZOLE] | 3.1 µM | – | > 128 | > 200 µM | –
